# Experimental data reported in patent publication US9359451B2, “Methods and compositions for treating trauma-hemorrhage using estrogen and derivatives thereof” (THE UAB RESEARCH FOUNDATION, priority 2012, dated 2016).
# “Also recorded” adds a separate entry of the source.
# Columns and labels:
# [1] = test system: isolated vascular rings; test: Vascular reactivity of isolated vascular rings in a physiological bath; parameters: species or system rat or pig; settings: antagonist added to EE-3-SO4
# Protocol: Data to delineate the mechanism of action for EE-3-SO4 vis-à-vis effects on the cardiovascular system was acquired. While it is well known that estrogens act on the vascular system by a variety of mechanisms including vasorelaxation per se, specific confirmation of this fact for EE-3-SO4 was needed. […] Vessels are contracted by a variety of agents (i.e., endothelin-1, phenylephrine). The action(s) are measured with a force transducer and recorded digitally. […] (see FIG. 42).
# [2] = test system: spinal cord tissue; test: Spinal cord injury (clip compression): histology and Luxol fast blue; assay type: in vivo, mouse; settings: 24 h after SCI; for histological alterations of the spinal cord tissue (H&E, histological score): 17β-estradiol 300 μg/kg sc 1 h before, 3 h and 6 h after SCI, ICI 182,780: 500 μg/kg sc 1 h before 17β-estradiol; for myelin structure (Luxol fast blue): ICI 182,780: co-administered with 17β-estradiol
# Protocol: Mice were anaesthetized using chloral hydrate (400 mg/kg body weight) (Genovese 2006). A longitudinal incision was made on the midline of the back, exposing the paravertebral muscles. These muscles were dissected away exposing T5-T8 vertebrae. The spinal cord was exposed via a four-level T6-T7 laminectomy and SCI was produced by extradural compression using an aneurysm clip with a closing force of 24 g. Following surgery, 1 ml of saline was administered subcutaneously in order to replace the blood volume lost during surgery. During the surgery and recovery from anesthesia, the mice were placed on a warm heating pad and covered with a warm towel. […] Food and water were provided to the mice ad libitum. During this time period, the animals' bladders were manually voided twice a day until the mice were able to regain normal bladder function. In all injured groups, the spinal cord was compressed for 1 min. Sham-injured animals were only subjected to laminectomy. […] In the experiments regarding the motor score, the animals from all the experimental groups were observed and treated daily for 9 days after SCI. At different time points (see FIG. 30), the mice (n=10 from each group for each of the 3 time points) were sacrificed in order to evaluate the various parameters as described below. Spinal cord biopsies were taken at 24 hours following trauma. Tissue segments containing the lesion (1 cm on each side of the lesion) were paraffin embedded and cut into 5-μm-thick sections. Tissue sections were deparaffinized with xylene, stained with Haematoxylin/Eosin (H&E) and Luxol Fast Blue staining (used to assess demyelination) and studied using light microscopy (Dialux 22 Leitz). The segments of each spinal cord were evaluated by an experienced histopathologist (RO). Damaged neurons were counted and the histopathologic changes of the gray matter were scored on a 6-point […] 2000): 0, no lesion observed, 1, gray matter contained 1 to 5 eosinophilic neurons; 2, gray matter contained 5 to 10 eosinophilic neurons; 3, gray matter contained more than 10 eosinophilic neurons; 4, small infarction (less than one third of the gray matter area); 5, moderate infarction; (one third to one half of the gray matter area); 6, large infarction (more than half of the gray matter area). The scores from all the sections from each spinal cord were averaged to give a final score for an individual mice. All the histological studies were performed in a blinded fashion.
# [3] = rat, in vivo, iv
# [4] = test system: ovariectomized female CBA/J mice; test: Trauma-hemorrhage in ovariectomized female mice: plasma E2 and uterine wet weight; assay type: in vivo, mouse; settings: 24 h after E2 sc; sham operated or hemorrhaged, vs vehicle
# Protocol: To test this, ovariectomized female CBA/J mice were subjected to laparotomy (i.e., soft tissue trauma) and hemorrhagic shock (35±5 mmHg for 90 min, then resuscitated) or sham operation. […] Immune cells were isolated 24 h thereafter.
# Experimental groups. Ovariectomy was performed in female CBA/J mice 2 wk before trauma-hemorrhage using two dorsolateral incisions. […] Two weeks after ovariectomy, the animals were divided into four groups. Groups 1 and 2 consisted of sham-operated ovariectomized females, which were neither hemorrhaged nor resuscitated. Animals in groups 3 and 4 consisted of ovariectomized females, which were subjected to the trauma-hemorrhage procedure. […] Each group consisted of 7-8 animals.
# Trauma-hemorrhage procedure. […] Blood pressure was constantly monitored by attaching one of the catheters to a blood pressure analyzer (Micro-Med, Louisville, Ky.). […]
# Determination of plasma E2 concentration. E2 concentration was determined using a commercially available radio-immunoassay (ICN Biomedicals, Costa Mesa, Calif.) as described by the manufacturer.
# [5] = test system: liver ATP and pH; test: 31P NMR spectroscopy of liver ATP and intracellular pH during hemorrhagic shock; assay type: in vivo, rat; settings: FIG. 23; vs cyclodextrin control; listed as E2
# Protocol: Imaging and nuclear magnetic resonance studies were conducted to evaluate the effects of E2 on preservation of adenosine triphosphate (ATP) and pH levels in the liver.
# The traumatic injury can involve a reduction in cellular ATP levels as compared to control ATP levels. By “control” is meant levels as measured before the traumatic injury, or levels that are considered in the “normal” range for the subject. Imaging and nuclear magnetic resonance studies have also been conducted to evaluate the effects of E2 on preservation of adenosine triphosphate (ATP) and pH levels in the liver.
# Although E2 administration after trauma-hemorrhage (T-H) and fluid resuscitation produces salutary effects on organ functions, it was not known if E2 has any beneficial effects after major blood loss in the absence of fluid resuscitation. Male SD rats ˜250 g) underwent T-H (tissue trauma, BP 40 mmHg in 10 min and maintained at that BP by further blood withdrawal until maximum bleed out (MBO, 60% of total blood volume) occurred (45:t5 min)). E2 i.v. (1 mg/Kg, 0.4 ml/Kg volume, i.e., 120 μL/300 g body weight) or vehicle (cyclodextrin, CD) was then infused. No additional fluid was given for 3 hours. If rats survived, they received Ringer's lactate, 4× the MBO volume. […]
# [6] = test system: injured brain; test: Traumatic brain injury: FDG-PET/CT, diffusion tensor imaging and MRI edema; assay type: in vivo, rat
# Protocol: In a second experiment, the efficacy of E2-SO4 treatment for TBI in a lateral fluid percussion (LFP) model was examined. This involved 6 groups of rats (n=5/group). All rats received a craniectomy. Groups 1, 2, 4 and 5 received LFP injury. Groups 1 and 4 were treated with E2 (1 mg/kg) 1 hr post-injury, groups 2 and 5 were vehicle (Veh)-treated and groups 3 and 6 were sham. Groups 1-3 underwent intracranial pressure (ICP), cerebral perfusion pressure (CPP) and partial oxygen pressure (pbtO2) monitoring. Groups 4-6 underwent fludoexoyglucose (FDG)-PET/CT and diffusion tensor imaging (DTI) analysis on days 1 and 7 post-induction. Relative standard uptake values (SUV) of upper half of brain to central value, fractional anisotropy (FA) and apparent diffusion coefficient (ADC) maps were calculated.
# Rats were either treated with E2 or a saline vehicle control, where treatment is administered 1 hour after injury. […] The former is the area of deranged nerves, while the latter constitutes intact nerves.
# [7] = test system: degenerate neurons; test: Traumatic brain injury: Fluro-Jade staining of degenerate neurons; assay type: in vivo, rat; settings: brain cortex or CA 2/3 hippocampus, 24 hours after 1 mg/kg iv given 1 hour after LFP TBI
# Description: As such, the lesser the FJ staining, the greater the neuroprotection. Sections stained with FJ are quantified as FJ positive cells, and are taken from brain cortex or CA 2/3 region of the hippocampus. The groups shown in the graph above are sham+vehicle, sham+E2, TBI+vehicle and TBI+E2.
# [8] = test system: Male SD rats; test: Survival and blood pressure after trauma-hemorrhage with 60% blood loss and no fluid resuscitation; assay type: in vivo, rat
# Protocol: 16 rats were subjected to 60% removal of blood volume, using the same protocol found in Example 5.
# Furthermore, crystalloid fluid resuscitation was administered following an initial 3-hour interval after the trauma and major blood loss, and rats were followed for 7 days. It has been observed that rats which survive for the initial 3 hours uniformly go on to survive for prolonged period of time and were then sacrificed. The survival rate is 68% for estrogen-treated rats, while all untreated control rats have died within the initial 3-hour interval (see FIG. 21).
# Although E2 administration after trauma-hemorrhage (T-H) and fluid resuscitation produces salutary effects on organ functions, it was not known if E2 has any beneficial effects after major blood loss in the absence of fluid resuscitation. Male SD rats ˜250 g) underwent T-H (tissue trauma, BP 40 mmHg in 10 min and maintained at that BP by further blood withdrawal until maximum bleed out (MBO, 60% of total blood volume) occurred (45:t5 min)). E2 i.v. (1 mg/Kg, 0.4 ml/Kg volume, i.e., 120 μL/300 g body weight) or vehicle (cyclodextrin, CD) was then infused. No additional fluid was given for 3 hours. If rats survived, they received Ringer's lactate, 4× the MBO volume. A custom-fabricated 31p coil was placed on the surface of the rat's liver after laparotomy in another group, and spectra acquired using 4.7T NMR spectroscopy via a 31p coil in real time before and during hemorrhagic shock. Shock increased phosphomonoester and Pi with a concomitant decrease in β-ATP in both groups.
SMILES,antagonism of EE-3-SO4's vessel relaxation [1],"histological alterations of the spinal cord tissue (H&E, histological score) [2]",myelin structure (Luxol fast blue) [2],blood levels after injection [3],uterine wet weight [4],intracellular pH in liver [5],"reduction in FA, sum of volumes from DTI slices, compared to vehicle controls ([6]; FIG. 49, treatment 1 hour after injury, images 24 hr after treatment)",FA (fractional anisotropy) change ([6]; between Veh and treated groups),"Edema size ([6]; day 1, treated group) [mm^3]","Edema size ([6]; day 7, treated group) [mm^3]",Fluro-Jade positive cells (neurodegeneration) [7],"3-hour survival rates without fluid resuscitation ([8]; E2 i.v. 1 mg/Kg, 0.4 ml/Kg at MBO (60% of total blood volume), vehicle cyclodextrin)",long-term survival after resuscitation ([8]; Ringer's lactate 4x MBO volume after 3 hours)
"C[C@]12CC[C@@H]3c4ccc(O)cc4C[C@@H](CCCCCCCCC[S+]([O-])CCCC(F)(F)C(F)(F)F)[C@H]3[C@@H]1CC[C@@H]2O (stereo partly drawn) [ICI 182,780]",completely blocked,significantly blocked the effect of the 17β-estradiol,significantly blocked the effect of the 17β-estradiol,–,–,–,–,–,–,–,–,–,–
C[C@]12CC[C@@H]3c4ccc(O)cc4CC[C@H]3[C@@H]1CC[C@@H]2O [17β-estradiol],–,significant protection against the SCI-induced histological alteration; also recorded: significant protection from the SCI was observed,myelin degradation was attenuated,attains high blood levels rapidly,significantly increased,maintenance of pH near neutral; also recorded: pH remains near neutral,approximately 50%,No significant FA change,10.4±2.6,1.2±0.7,greater that twofold fewer cells undergoing neurodegeneration,markedly improves 3-hour survival rates,increases long-term survival after resuscitation
